“And” between values parts separate entries of the source, which are not always exact repeats. Equal entries are not always repeated.
Key:
[1] = Long-term treatment of HFD-fed mice: body mass, liver weight, plasma lipids, liver function; assay type: in vivo, C57BL/6J female mice
Protocol: (§1) Animal studies were approved by Institutional Animal Care and Use Committee of McGuire Veterans Affairs Medical Center and were conducted in accordance with the Declaration of Helsinki, the Guide for the Care and Use of Laboratory Animals, and all applicable regulations. To examine the effect of 25HC3S on diet-induced lipid accumulation in sera and liver, 8-week-old female C57BL/6J mice (Charles River, Wilmington, Mass.) were randomly assigned to three groups: the first control group was fed a chow diet; the high fat diet (HFD) group was fed a HFD (Harlan Teklad, Madison, Wis.) containing 42% kcal from fat, 43% kcal from carbohydrate, 15% kcal from protein and 0.2% cholesterol; and the high cholesterol diet (HCD) group was fed a 2% cholesterol diet with 18% kcal from fat, 58% kcal from carbohydrate and 24% kcal from protein for 10 weeks, respectively. All mice were housed under identical conditions in an aseptic facility and given free access to water and food. At the end of each period, the mice were intraperitoneally injected with vehicle solution (ethanol/PBS; Vehicle), 25HC (25 mg/kg), or 25HC3S (25 mg/kg) for 2 times and fasted over night for acute treatment (n=15-17 for each group) or once every three days for 6 weeks (n=16 for each group) and fasted 5 hrs for long-term treatment; and blood samples were collected. Serum triglyceride, total cholesterol, high density lipoprotein-cholesterol, glucose, alkaline phosphatase (ALK), alanine aminotransferase (ALT), and aspartate aminotransferase (AST) were measured using standard enzymatic techniques in the clinical laboratory at McGuire Veterans Affairs Medical Center. Lipoprotein profiles in sera were analyzed by HPLC as following described.

[2] = Quantification of hepatic lipids and liver morphology, long-term treatment; assay type: in vivo, C57BL/6J female mice; settings: HFD mice
Protocol: as §1
For each mouse, three specimens from different regions of the liver were collected and fixed in 4% paraformaldehyde in 0.1 M phosphate buffer at room temperature overnight. The regions of the specimens were standardized for all mice. The paraffin-embedded tissue sections (4 μm) were stained with hematoxylin and eosin.
Liver tissues were homogenized, and lipids were extracted with a mixture of chloroform and methanol (2:1), and filtered. The extracts, 0.2 ml, were evaporated to dryness and dissolved in 100 μl of isopropanol containing 10% of triton X-100 for cholesterol assay (Wako Chemicals USA, Richmond, Va.), the NEFA solution (0.5 g of EDTA-Na2, 2 g of Triton X-100, 0.76 ml of 1N NaOH, and 0.5 g of sodium azide/1, pH 6.5) for free fatty acid assay (Wako Chemicals USA, Richmond, Va.), or isopropanol only for triglyceride assay (Fisher Scientific, Pittsburgh, Pa.). All of the assays were performed according to the manufacturer's instructions, respectively. Each lipid concentration was normalized to liver weight.

[3] = Pharmacokinetics and tissue biodistribution of radioactivity after i.v. injection; assay type: in vivo, C57BL/6 mice
Protocol: In a separate set of experiments, mice received an i.v. injection of [^3H]-25HC3S (1×10^6 cpm/mouse) and 25HC3S (5 mg/kg). At 4, 24, 48, and 96 h after the injection, mice were sacrificed, tissues (brain, heart, lung, liver, kidney, spleen, stomach, small intestine, skeletal muscle, and colon) were rapidly dissected and weighed, and the radioactivity was measured using a liquid scintillation counter with automatic decay correction (Beckman Counter, Atlanta, Ga.). Tissue values were calculated as a percentage of injected counts per gram of tissue (% IC/g). For pharmacokinetics, blood samples (30 μl) were collected at selected times after injection from 0 to 96 h via tail clip. Counts of radioactivity were expressed as IC/ml of blood.

[4] = tested on: apoptotic and cell cycle related genes; experiment: Mouse Cell cycle RT2 Profiler PCR Array of liver tissues; assay type: in vivo, C57BL/6 mice; settings: 5 mg/kg, versus vehicle
Protocol: The real-time PCR array was performed using the Mouse Cell cycle RT2 Profiler™ PCR Array consisting of 84 key genes involved in apoptosis and proliferation as the manufacturer's instruction (SABiosciences, Frederick, Md.). Total mRNA was reverse-transcribed to cDNA as described above. Three of biologically-distinct specimens were pooled to reduce variance. The cDNA was then amplified precisely like real-time PCR in the primers-preloaded PCR plates on the ABI 7500 Fast Real-Time PCR System. ΔΔCT values between different stimulated samples were analyzed as the manufacturer's instruction, which output p-values for fold-regulation change.

[5] = tested on: genes related to cell cycle progression; experiment: RTqPCR of cell cycle-related genes in mouse liver after 25HC3S (Example 3); assay type: in vivo, C57BL/6 mice; settings: doses lower than 5 mg/kg, 48 h, dose-dependent
Protocol: PCR assays were performed in 96-well optical reaction plates using the ABI 7500 Fast Real-Time PCR System (Applied Biosystems, Foster City, Calif.). PCR assays were conducted in triplicate wells for each sample. Baseline values of amplification plots were set automatically and threshold values were kept constant to obtain normalized cycle times and linear regression data. The following reaction mixture per well was used: 2×SYBR Green PCR Master Mix (10 ul), primer at the final concentration of 10 uM (1 ul), RNAse-free water (4 ul), cDNA (5 ul, 10 ng). For all experiments the following PCR conditions were used: denaturation at 95° C. for 10 minutes, followed by 40 cycles at 95° C. for 15 seconds, then at 60° C. for 60 seconds. Quantitative normalization of cDNA in each sample was performed using 18S gene as an internal control. Relative quantification was performed using the ΔΔCT method. Suitable primers were used for RtqPCR.

[6] = i.v. [3H]-25HC3S and 25HC3S 5 mg/kg

In the case of `CC(CCCC(C)(C)O)C1CCC2C3CC=C4CC(OS(=O)(=O)O)CCC4(C)C3CCC12C` (stereo not drawn) [25HC3S, 25-hydroxycholesterol-3-sulfate], the liver weight ([1]; 6 weeks injection, fasted 5 hrs) is reported as “significantly decreased”, the body mass ([1]; i.p. once every three days, 6 weeks, control kept increasing) is reported as “stopped increasing body mass” and the “serum ALK, ALT and AST levels” value ([1]; long-term treatment) is reported as “significantly reduced”. For the same molecule, the plasma triglyceride level ([1]; long-term treatment (data not shown)) was “did not significantly decrease”, the plasma cholesterol level ([1]; long-term treatment, compared to vehicle (data not shown)) was “significantly decreased” and the “hepatic cholesterol ester concentration” value [2] was “not affected”. The “lipid inclusions in liver (H&E morphology)” value [2] was “significantly decreased”, the “reduction of hepatic free cholesterol” value ([2]; normalized by liver weight) was 28% and the “reduction of hepatic free fatty acid” value ([2]; normalized by liver weight) was 23%. The “reduction of hepatic total cholesterol” value ([2]; normalized by liver weight) was 15%, the “reduction of hepatic triglyceride” value ([2]; normalized by liver weight) was 30% and the “maximum level of 3H-radioactivity in blood” value ([3]; i.v. [3H]-25HC3S (1×10^6 cpm/mouse) and 25HC3S 5 mg/kg) was 7 % IC/g. The “time at which blood 3H-radioactivity decreased to the half level” value [3, 6] was 48 h, the “time of maximum 3H-radioactivity in blood” value [3, 6] was 1 h and the clearance ([3]; i.v., blood radioactivity) was “slow clearance”. For the same molecule, the “time of highest uptake of 3H-radioactivity in most organs” value ([3]; i.v., measured at 4, 24, 48 and 96 h) was 4 h, the “decrease of Apaf1 expression” value ([4]; 48 h) was 3 fold and the “decrease of Chek2 expression” value ([4]; 48 h) was 4.5 fold. For the same molecule, the “Fold change Apaf1(NM_009684)” value ([4]; 2 days, pooled mRNA) was −3.21 fold, the “Fold change Atr(NM_019864)” value ([4]; 2 days, pooled mRNA) was −2.15 fold and the “Fold change Bag1(NM_009736)” value ([4]; 2 days, pooled mRNA) was 2.0488 fold. For the same molecule, the “Fold change Bnip3(NM_009760)” value ([4]; 2 days, pooled mRNA) was 2.0112 fold, the “Fold change Brca1(NM_009764)” value ([4]; 2 days, pooled mRNA) was −1.87 fold and the “Fold change Ccnb2(NM_007630) Cyclin B2” value ([4]; 2 days, pooled mRNA) was 1.90 fold. The “Fold change Ccne2(NM_009830) Cyclin E2” value ([4]; 2 days, pooled mRNA) was 2.52 fold, the “Fold change Cdc25a(NM_007658)” value ([4]; 2 days, pooled mRNA) was 1.53 fold and the “Fold change Cdc25c(NM_009860)” value ([4]; 2 days, pooled mRNA) was 1.56 fold. For the same molecule, the “Fold change Cdkn1a(NM_007669)” value ([4]; 2 days, pooled mRNA) was 3.0411 fold, the “Fold change Chek2(NM_016681)” value ([4]; 2 days, pooled mRNA) was −4.65 fold and the “Fold change E2f3(NM_010093)” value ([4]; 2 days, pooled mRNA) was 2.0193 fold. The “Fold change Ep300(NM_177821)” value ([4]; 2 days, pooled mRNA) was 1.8114 fold, the “Fold change Esr1(NM_007956)” value ([4]; 2 days, pooled mRNA) was 2.2535 fold and the “Fold change Gadd45a(NM_007836)” value ([4]; 2 days, pooled mRNA) was −1.59 fold. For the same molecule, the “Fold change Hif1a(NM_031168)” value ([4]; 2 days, pooled mRNA) was 1.7576 fold, the “Fold change Mdm2(NM_010786)” value ([4]; 2 days, pooled mRNA) was 1.6222 fold and the “Fold change Myod1(NM_010866)” value ([4]; 2 days, pooled mRNA) was 1.56 fold. The “Fold change Nf1(NM_010897)” value ([4]; 2 days, pooled mRNA) was 2.10 fold, the “Fold change Pcna(NM_011045)” value ([4]; 2 days, pooled mRNA) was 3.7 fold and 3.77 fold and the “Fold change Prkca(NM_011101)” value ([4]; 2 days, pooled mRNA) was 2.29 fold. For the same molecule, the “Fold change Tnf(NM_013693)” value ([4]; 2 days, pooled mRNA) was −2.76 fold, the “Fold change Tnfrsf10b(NM_020275)” value ([4]; 2 days, pooled mRNA) was −2.28 fold and the “Fold change Trp73(NM_011642)” value ([4]; 2 days, pooled mRNA) was 2.5194 fold. The “Fold change Wt1(NM_144783)” value ([4]; 2 days, pooled mRNA) was 3.9 fold and 3.90 fold, the “Fold change Xrcc5(NM_009533)” value ([4]; 2 days, pooled mRNA) was −1.90 fold and the “hepatic mRNA of cMyc, cyclin A, FoxM1b, CDC25b” value [5] was “significant up-regulation”.
